Activity calls are given as the source filed them. How the calls were made is not given here.

In the test the target is Serine/threonine-protein kinase mTOR (Homo sapiens) (UniProt P42345). Kind of test: binders of mTOR FRB domain, biophysical, NMR (AID 1648). The note with it: NMR binding to FRB domain, chemical shift.
Chain of Serine/threonine-protein kinase mTOR (Homo sapiens) (P42345 2015-2114): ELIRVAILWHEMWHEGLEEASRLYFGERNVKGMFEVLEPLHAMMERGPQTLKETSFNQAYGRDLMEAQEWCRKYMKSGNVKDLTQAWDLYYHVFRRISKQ
In the case of `O=C(Nc1ccc(N2CCCC2=O)cc1)c1cccc(F)c1`, the Kd is > 4 mM (inactive).
Then `O=C(Oc1ccc(-c2nnco2)cc1)N1CCOCC1`, with > 4 mM (inactive); and `c1nnc2c3c4c(sc3ncn12)CCCC4`, with > 4 mM (inactive); and `CN1C(CC(=O)c2ccccc2)CCCC1CC(O)c1ccccc1` (configuration not stated), with > 4 mM (inactive).
On to `COc1c(O)cccc1O`, for which the Kd was > 4 mM (inactive).
The value for `CC(=O)OCc1cc(=O)n(C)c(=O)n1C` was > 4 mM (inactive); that for `CC(=O)NC(=S)Nc1ccccc1C(N)=O` was > 4 mM (inactive).
The value for `Cc1ccc(NC(=O)CN2C(=O)CSC2=O)cc1` was > 4 mM (inactive); that for `OCCCc1nc2ccccc2[nH]1` was > 4 mM (inactive).
Then `OCC12COC3c4ccccc4C(OC1)N32` (configuration not stated), with > 4 mM (inactive).
For the compound `Cn1cnnc1SCCCNC(=O)Nc1ncccn1`, the Kd is > 4 mM (inactive).
Then `c1ccc(Cc2nnc3sc(-c4cccnc4)nn23)cc1`, with > 4 mM (inactive); and `Cc1sc2nc(-c3ccco3)oc(=O)c2c1C`, with > 4 mM (inactive).
Then `O=c1ccc2ccc(O)cc2o1`, with > 4 mM (inactive); and `Cc1c(/C=N/O)cnn1C`, with > 4 mM (inactive); and `COc1ccc2c(c1)OC[C@@H](Cc1ccc(OC)c(OC)c1)[C@@H]2O`, with > 4 mM (inactive).
The value for `COc1c2occc2cc2ccc(=O)oc12` was > 4 mM (inactive); that for `O=C1CSC(=Nc2cc(Cl)ccc2Cl)N1` was > 4 mM (inactive); that for `Nc1nnc(COc2cccc(C(F)(F)F)c2)s1` was > 4 mM (inactive).
For the compound `Cc1ccc(N)nc1`, the Kd was > 4 mM (inactive).
As to `O=[n+]1cc(C2=CC=CCC2)n([O-])c2c1CCCCC2`, the Kd is > 4 mM (inactive).
In the case of `C=C1C2CC[C@@]3(C)[C@H](c4ccoc4)OC(=O)C[C@]13O[C@H]1CC(=O)C(C)(C)[C@H](C(OC(C)=O)C(=O)OC)[C@@]21C` (some centres not stated), the Kd is > 4 mM (inactive).
Turning to `Cc1[nH]c2ccccc2c1Cc1n[nH]c(=S)n1C`, the Kd is > 4 mM (inactive).
The value for `CCCCCCCCCCCCCCC(C(=O)O)C(O)(CC(=O)OC)C(=O)O` (configuration not stated) was > 4 mM (inactive).
Then `COc1cc(C(=S)N2CCOCC2)ccc1O`, with > 4 mM (inactive).
For `CC(C)(C)c1cc(NC(=O)c2cccnc2)no1`, the Kd was > 4 mM (inactive).
The value for `COc1cc(O)c(C(C)=O)c(OC)c1` was > 4 mM (inactive); that for `Cc1cc(NC(=O)c2c(F)c(F)c(F)c(F)c2F)no1` was > 4 mM (inactive).
Then `O=C(NCc1cccnc1)c1ccccn1`, with > 4 mM (inactive).
Then `Cc1ccc(NC(=O)c2ccccc2)s1`, with > 4 mM (inactive).
On to `Cc1nc2ccccc2c(=O)n1/N=C/c1ccncc1`, for which the Kd was > 4 mM (inactive).
Then `CSc1nc2nccc(N)n2n1`, with > 4 mM (inactive); and `Cc1cc(C)n(S(=O)(=O)c2cc(C)c(C)cc2C)n1`, with > 4 mM (inactive); and `O=CN1CCN(C(=O)c2ccccc2Cl)CC1`, with > 4 mM (inactive).
As for `CC(=O)OC1CCC23C(=O)OC45CCC(C6=CC(=O)OC6)C4(C)CCC2C5CCC3(O)C1` (configuration not stated), the Kd is > 4 mM (inactive).
As for `N/C(=N/O)C1COc2ccccc2O1` (configuration not stated), the Kd was > 4 mM (inactive).
`COc1cc(OC)c2c(OC)c(-c3ccc4c(c3)OCO4)c(=O)oc2c1`: the Kd was > 4 mM (inactive).
Then `OCc1snnc1-c1ccccc1`, with > 4 mM (inactive); and `Nc1cc(=O)[nH]c(=O)n1-c1ccccc1`, with > 4 mM (inactive).
As to `Nc1cc(=O)[nH]c(SCC(=O)NCc2ccccc2)n1`, the Kd is > 4 mM (inactive).
The value for `O=c1/c(=C/c2cccs2)sc2ncnn12` was > 4 mM (inactive); that for `O=C(O)c1ccc2c(c1)OCCCO2` was > 4 mM (inactive); that for `NCCc1cnc[nH]1` was > 4 mM (inactive).
On to `Nc1oncc1-c1ccccn1`, for which the Kd was > 4 mM (inactive).
`CN1CCn2c1nc(N1CCOCC1)nc2=O`: the Kd is > 4 mM (inactive).
`C=CCCCCCCCCCCCC(O)CC(O)CO` (configuration not stated) (tested in a mixture with another compound): the Kd is > 4 mM (inactive).
Then `CCn1nnc2c(NCc3ccccn3)ncnc21`, with > 4 mM (inactive).
On to `CC(C)(C)NC(=O)CN1C(=O)c2ccccc2S1(=O)=O`, for which the Kd was > 4 mM (inactive).
Consider `Cc1cc(NC(=O)c2cccc(N3C(=O)CCC3=O)c2)no1`, for which the Kd was > 4 mM (inactive).
The value for `CC(=O)N1CCN(S(=O)(=O)c2ccccc2)CC1` was > 4 mM (inactive); that for `COC(=O)N1CCN(c2ccc(OC)cc2)CC1` was > 4 mM (inactive); that for `Clc1ncnc2[nH]ncc12` was > 4 mM (inactive).
As to `C[C@H]1[C@H](C)CC[C@]2(C(=O)O)CC[C@]3(C)C(=CCC4[C@@]5(C)C[C@@H](O)[C@H](O)[C@@](C)(CO)C5[C@H](O)C[C@]43C)[C@H]12` (some centres not stated), the Kd was > 4 mM (inactive).
With `CC(=O)NC(c1ccccc1)c1cccnc1` (configuration not stated), the Kd is > 4 mM (inactive).
The value for `CN1C(=O)C2CC=C(Cl)CC2C1=O` (configuration not stated) was > 4 mM (inactive); that for `NCc1cccc2c1OCCO2` was > 4 mM (inactive).
The value for `O=C(O)C1CC(=O)N(CCc2ccc(Cl)cc2)C1` (configuration not stated) was > 4 mM (inactive).
The value for `c1csc(-c2nn[nH]n2)c1` was > 4 mM (inactive); that for `CCc1c(C)n([O-])c2c([n+]1=O)CCC2` was > 4 mM (inactive).
Turning to `O=NN1C(=O)c2ccccc2C1=O`, the Kd was > 4 mM (inactive).
As for `Nc1ccc(-n2cccn2)cc1`, the Kd was > 4 mM (inactive).
The value for `O=C1NC(=O)C(c2ccccc2)C(=O)N1` was > 4 mM (inactive); that for `Nc1ccc(CN2CCOCC2)cc1` was > 4 mM (inactive).
For `NCc1n[nH]c(=O)c2ccccc12`, the Kd is > 4 mM (inactive).
Regarding `Cc1cccc(-c2nnc(-c3ccc(N)cc3)o2)c1`, the Kd was > 4 mM (inactive).
Consider `Cc1ccc(NC(=O)C2CCCNC2=O)nc1` (configuration not stated), for which the Kd was > 4 mM (inactive).
Take `CC(=O)NCS(=O)(=O)c1ccc(C)cc1`: the Kd is > 4 mM (inactive).
`NC1CN2CCC1CC2` (configuration not stated): the Kd is > 4 mM (inactive).
As to `Cc1onc(-c2ccccc2)c1CN`, the Kd is > 4 mM (inactive).
Consider `O=C(CC1NC(=O)NC1=O)Nc1ccccc1` (configuration not stated), for which the Kd is > 4 mM (inactive).
Then `CN(C)C(=O)Nc1ccc2c(c1)nnn2C`, with > 4 mM (inactive).
Then `Cc1nc2ccccc2c2c1C(=O)N(N)C2=O`, with > 4 mM (inactive); and `Nc1cncc(C(=O)O)c1`, with > 4 mM (inactive); and `CC(=O)Nc1ccc(NC(C)=O)cc1`, with > 4 mM (inactive).
Then `Nc1nncn1C(=O)c1c(Cl)cccc1Cl`, with > 4 mM (inactive); and `O=C(O)c1cn(-c2ccccc2)nc1-c1ccncc1`, with > 4 mM (inactive); and `O=C(Nc1ccccc1)NC1CCS(=O)(=O)C1` (configuration not stated), with > 4 mM (inactive).
